Experiments:
Assay type in all cases: functional, cell-based
[1] = tested on: A-431; assay: Cytotoxicity against human A431 cells by MTT assay
[2] = tested on: KETR3; assay: Cytotoxicity against human KETR3 cells by MTT assay
[3] = tested on: HCT-8; assay: Cytotoxicity against human HCT8 cells by MTT assay
[4] = tested on: PANC-1; assay: Cytotoxicity against human PANC1 cells by MTT assay
[5] = tested on: Bel-7402; assay: Cytotoxicity against human BEL-7402 cells by MTT assay
[6] = tested on: BGC-823; assay: Cytotoxicity against human BGC823 cells by MTT assay
[7] = tested on: PC-3; assay: Cytotoxicity against human PC3M cells by MTT assay
[8] = tested on: NCI-H460; assay: Cytotoxicity against human H460 cells by MTT assay

SMILES	IC50 [1] [nM]	IC50 [2] [nM]	IC50 [3] [nM]	IC50 [4] [nM]	IC50 [5] [nM]	IC50 [6] [nM]	IC50 [7] [nM]	IC50 [8] [nM]
CO[C@]1(CC[C@H](C)CO)O[C@H]2C[C@H]3[C@@H]4CC=C5C[C@@H](O[C@H]6O[C@H](CO)[C@@H](O)[C@H](O[C@@H]7O[C@H](CO)[C@@H](O)[C@H](O)[C@H]7O)[C@H]6O[C@@H]6O[C@@H](C)[C@H](O)[C@@H](O)[C@H]6O)CC[C@]5(C)[C@H]4CC[C@]3(C)[C@H]2[C@@H]1C	670	3780	1420	380	950	2520	2760	8160
CO[C@]1(CC[C@H](C)CO)O[C@H]2C[C@H]3[C@@H]4CC=C5C[C@@H](O[C@@H]6O[C@H](CO)[C@@H](O)[C@H](O[C@@H]7O[C@H](CO)[C@@H](O)[C@H](O)[C@H]7O)[C@H]6O[C@@H]6O[C@@H](C)[C@H](O)[C@@H](O)[C@H]6O)CC[C@]5(C)[C@H]4CC[C@]3(C)[C@H]2[C@@H]1C [ICOGENIN]	3440	5150	1450	270	750	> 10000	4350	> 10000
